In ChEMBL document CHEMBL5126535, “Quinoline heterocyclic containing plant and marine candidates against drug-resistant Mycobacterium tuberculosis: A systematic drug-ability investigation” (Eur J Med Chem, 2022):
In brackets after ≈: the same amount, converted by molar mass.

Key:
[1] = tested on: Mycolicibacterium fortuitum; assay: Antibacterial activity against Mycobacterium fortuitum measured after 72 hrs by 96-well microtitre plate assay; format: functional
[2] = tested on: Mycobacterium tuberculosis; assay: Antibacterial activity against Mycobacterium tuberculosis; format: functional, organism-based
[3] = tested on: Mycobacterium tuberculosis; assay: Antibacterial activity against Mycobacterium tuberculosis incubated for 5 days by Alamar blue staining method; format: functional; settings: 120 h, time 5 day
[4] = tested on: Mycolicibacterium fortuitum; assay: Antibacterial activity against Mycobacterium fortuitum ATCC 6841 measured after 24 hrs; format: functional
[5] = tested on: Mycobacterium tuberculosis; assay: Antibacterial activity against Mycobacterium tuberculosis measured after 14 days; format: functional; settings: 336 h, time 14 day
[6] = tested on: Mycobacterium tuberculosis; assay: Antibacterial activity against Mycobacterium tuberculosis H37Rv ATCC 27294 by broth microdilution based microplate Alamar blue staining method; format: functional
Mycolicibacterium aurum = assay: Antibacterial activity against Mycobacterium aurum measured after 72 hrs; format: functional
[7] = tested on: Mycolicibacterium smegmatis; assay: Antibacterial activity against Mycobacterium smegmatis measured after 72 hrs; format: functional
[8] = tested on: Mycobacterium tuberculosis; assay: Antibacterial activity against Mycobacterium tuberculosis H37Ra ATCC 25177 assessed as no visible mycobacterial growth incubated for 7 to 8 days by light microscope based spectrophotometric analysis; format: functional; settings: time 7-8 day
[9] = tested on: Mycobacterium tuberculosis; assay: Antibacterial activity against Mycobacterium tuberculosis H37Rv ATCC 27294 incubated for 5 days by Alamar blue staining method; format: functional; settings: H37Rv ATCC 27294, 120 h, time 5 day
[10] = tested on: Mycobacterium tuberculosis; assay: Antibacterial activity against Mycobacterium tuberculosis H37Ra assessed as inhibition of bacterial growth incubated for 72 hrs by microbroth dilution method; format: functional
[11] = tested on: Mycobacterium tuberculosis; assay: Antibacterial activity against Mycobacterium tuberculosis H37Ra by MABA method; format: functional
[12] = tested on: Mycobacterium tuberculosis; assay: Antibacterial activity against Mycobacterium tuberculosis H37Rv ATCC 27294 incubated for 6 weeks by MGIT assay; format: functional; settings: H37Rv ATCC 27294, 1008 h

How did the MIC [1] turn out when `C[n+]1c2ccccc2cc2[n-]c3ccccc3c21` [CRYPTOLEPINE] was run?
Its MIC is 16 µg/mL (≈ 68.9 µM).

For `O=C1c2cccnc2-c2nccc3c2c1nc1ccccc13` [ASCIDIDEMIN], which MIC [2] is on record?
Its MIC is 0.01 µg/mL (≈ 0.0353 µM).

How did the MIC [3] turn out when `COc1cc2c(c3c[n+](C)c4c5cc6c(cc5ccc4c13)OCO6)OCO2` was run?
The MIC was 12.5 µg/mL.

`Cn1c2c3ccccc3nc-2c(-c2c3nc4ccccc4c-3n(C)c3ccccc23)c2ccccc21` [BISCRYPTOLEPINE] was tested. Which MIC [4] did it give?
The MIC was 6.25 µg/mL (≈ 13.5 µM).

Which MIC [2] does the source give for `CSc1cnc2c3c(nc4ccccc4c13)C(CCNC(C)=O)=CC2=O` [ISODIPLAMINE] here?
The MIC was 6.18 µg/mL (≈ 17 µM).

How did the MIC [2] turn out when `OC12C=C(c3nccc4c3[nH]c3ccccc34)C3CCN(CCCC/C=C\CC1)CC31CC34CCC(CCCN3C21)O4` (stereo not drawn) was run?
The MIC was 1.77 µg/mL (≈ 3.13 µM).

Which MIC [4] does the source give for `Cn1c2nc3ccccc3c-2cc2ccccc21` [NEOCRYPTOLEPINE] here?
Its MIC is 31 µg/mL (≈ 133 µM).

`Cn1c(=O)ccc2ccccc21` was tested. Which MIC [5] did it give?
Its MIC is 25 µg/mL (≈ 157 µM).

Which MIC [3] does the source give for `COc1cc2c[n+](C)c3c4cc5c(cc4ccc3c2cc1OC)OCO5` [NITIDINE] here?
Its MIC is 12.5 µg/mL.

`COc1ccc2cc1-c1cc(ccc1O)CC1c3cc4c(cc3CCN1C)Oc1c(OC)cc3c(c1O4)C(C2)N(C)CC3` (stereo not drawn) was tested. Which MIC [5] did it give?
Its MIC is 3.1 µg/mL (≈ 5.38 µM).

With `On1ccc2c3ccccc3nc-2c1C1=CC2(O)CCC/C=C\CCCN3CCC1C1(CC4/C=C\CCCCN4C21)C3` (stereo not drawn) as the compound, how does the MIC [2] read?
Its MIC is 3.9 µg/mL (≈ 6.91 µM).

`CC(=O)C[C@@H]1CC2C(C3c4[nH]c5ccccc5c4CCN31)C(O)C13CC/C=C\CCCCN1CC21CC/C=C\CCCCNC13` (stereo partly drawn) was tested. Which MIC [6] did it give?
The MIC was 1.9 µg/mL (≈ 3.11 µM).

How did the MIC [2] turn out when `CSC1=C(CCNC(C)=O)c2nc3ccccc3c3ccnc(c23)C1=O` [DIPLAMINE] was run?
The MIC was 6.18 µg/mL (≈ 17 µM).

What does the source list for `C[n+]1cc2c3c(ccc2c2ccc4cc5c(cc4c21)OCO5)OCO3` [SANGUINARIUM]?
MIC (Mycolicibacterium aurum): 24.5 µg/mL; MIC [7]: 24.5 µg/mL

`COc1c(O)ccc2c1cnc1c3cc4c(cc3ccc21)OCO4` [DECARINE] was tested. Which MIC [8] did it give?
Its MIC is 3.1 µg/mL (≈ 9.71 µM).

For `CC(=O)C[C@H]1CC2C(C3c4[nH]c5ccccc5c4CCN31)C(O)C13CC/C=C\CCCCN1CC21CC/C=C\CCCCNC13` (stereo partly drawn), which MIC [6] is on record?
Its MIC is 1.57 µg/mL (≈ 2.57 µM).

For `O=C1c2c(O)ccnc2-c2nccc3c2c1nc1ccccc13`, which MIC [2] is on record?
The MIC was greater than 12.6 µg/mL.

Which MIC [9] does the source give for `COc1cc2c(cc1OC)-c1c3c(cc4ccnc(c14)C2=O)OCO3` [DICENTRINONE] here?
Its MIC is 50 µg/mL (≈ 149 µM).

For `COc1cc2c(cc1O)CCNC21C[S+]([O-])C2c3c(OC(C)=O)c(C)c4c(c3C(COC1=O)N1C(C#N)C3CC5CC(C)C(OC)C(O)C5C(C21)N3C)OCO4` (stereo not drawn), which MIC [2] is on record?
The MIC was 1.6 µg/mL (≈ 2.02 µM).

With `COc1cc2c3c(OC)cc4c(c3c[n+](C)c2c2cc3c(cc12)OCO3)OCO4` as the compound, how does the MIC [3] read?
Its MIC is 12.5 µg/mL.

For `CC(=O)NCCc1c2c3c(ccnc3c3ncsc13)-c1ccccc1N2` [KUANONIAMINE D], which MIC [2] is on record?
The MIC was 12.2 µg/mL (≈ 34 µM).

How did the MIC [3] turn out when `COc1ccc2c(c1OC)C(OC)N(C)c1c-2ccc2cc3c(cc12)OCO3` (stereo not drawn) was run?
Its MIC is 12.5 µg/mL (≈ 32.9 µM).

Which MIC [10] does the source give for `CCCC/C=C\CCCCCCCc1cc(=O)c2ccccc2n1C` here?
The MIC was 5 µg/mL (≈ 14.7 µM).

How did the MIC [2] turn out when `CC(=O)NCCc1c2c(c3nccc4c3c1Nc1ccccc1-4)OCS2` [LISSOCLINIDINE] was run?
The MIC was 6.18 µg/mL (≈ 17 µM).

Which MIC [2] does the source give for `O=C1c2scnc2-c2nccc3c2c1nc1ccccc13` [KUANONIAMINE A] here?
The MIC was 3.1 µg/mL (≈ 10.7 µM).

Which MIC [11] does the source give for `COc1cccc2c1C(=O)c1nccc3cc4c(c-2c13)OCO4` [OXOSTEPHANINE] here?
Its MIC is 25 µg/mL (≈ 81.9 µM).

With `CC(=O)NCCc1c2c(c3nccc4c3c1Nc1ccccc1-4)NC(=O)CS2` [SHERMILAMINE B] as the compound, how does the MIC [2] read?
The MIC was 12.5 µg/mL (≈ 32 µM).

For `COc1ccc(CCc2cc(OC)c3ccccc3n2)cc1OC`, which MIC [5] is on record?
The MIC was 6.25 µg/mL (≈ 19.3 µM).

Which MIC [5] does the source give for `COc1ccc(CCC2CCc3ccccc3N2C)cc1OC` (stereo not drawn) here?
The MIC was 6 µg/mL (≈ 19.3 µM).

For `COc1ccc2cc1Oc1ccc(cc1)CC1NCCc3cc(OC)c(cc31)Oc1c(OC)c(OC)cc3c1C(C2)N(C)CC3` (stereo not drawn), which MIC [5] is on record?
Its MIC is 0.25 µg/mL (≈ 0.411 µM).

For `COc1ccc2c(c1)c(-c1c3c4c(cc5c(c4c4ccc(OC)cc14)OCO5)CCN3)c1c3c(cc4c(c32)OCO4)CCN1` [BIDEBILINE E], which MIC [5] is on record?
Its MIC is 6.25 µg/mL (≈ 10.7 µM).

`COC(=O)C1=C2Nc3ccccc3C23CCN2C(O)C4(CC5CC67CC(=O)OC6CCN6CCC8(c9cccc(OC)c9N(C4)C58)C67)C4OCCC4(C1)C23` (stereo not drawn) was tested. Which MIC [5] did it give?
The MIC was 4 µg/mL (≈ 5.46 µM).

For `CCCCCc1cc(OC)c2ccccc2n1`, which MIC [5] is on record?
The MIC was 6.25 µg/mL (≈ 27.3 µM).

Which MIC [3] does the source give for `Cc1ccnc2c1C(=O)c1ccccc1C2=O` [CLEISTOPHOLINE] here?
The MIC was 12.5 µg/mL (≈ 56 µM).

Which MIC [2] does the source give for `COc1ccc2c(c[n+](C)c3c4cc5c(cc4ccc23)OCO5)c1OC` [CHELERYTHRINE] here?
The MIC was 3.1 µg/mL.

`COc1cc2c(cc1OC)-c1cc(CC(C)=O)c3cc4c(cc3c1N(C)C2)OCO4` was tested. Which MIC [2] did it give?
The MIC was 6.25 µg/mL (≈ 15.4 µM).

For `COc1cc(CCc2ccc3c(c2)OCO3)nc2ccccc12` [CUSPARINE], which MIC [5] is on record?
Its MIC is 6.25 µg/mL (≈ 20.3 µM).

How did the MIC [12] turn out when `COc1ccc2c3c(c4cc(OC)c(OC)cc4c2c1)CN1CCC[C@H]1C3` was run?
The MIC was 12.5 µg/mL (≈ 34.4 µM).

How did the MIC [5] turn out when `CN1c2ccccc2CCC1CCc1ccc2c(c1)OCO2` (stereo not drawn) was run?
Its MIC is 6.25 µg/mL (≈ 21.2 µM).

How did the MIC [3] turn out when `COc1cc(-c2ccccc2)nc2ccccc12` was run?
Its MIC is 6.25 µg/mL (≈ 26.6 µM).

How did the MIC [5] turn out when `COc1ccc2cc1-c1cc(ccc1O)CC1NCCc3cc4c(cc31)Oc1c(c(OC)cc3c1C(C2)N(C)CC3)O4` (stereo not drawn) was run?
The MIC was 3.1 µg/mL (≈ 5.51 µM).

For `COc1cc2c(c3c1-c1ccc4cc5c(cc4c1N(C)C3OC)OCO5)OCO2` (stereo not drawn), which MIC [3] is on record?
The MIC was 25 µg/mL (≈ 63.5 µM).
